Data taken from patent US7507764B2 (Tego BioSciences Corporation, priority 2003, dated 2009).
Entries after “also recorded” stand apart in the source; their conditions may differ.

Experiment: Qualitative solubility in water and organic solvents
Assay type: physicochemical
Conditions: for solubility in methanol: compared to octadecadiynyl analogues 12 and 3; for solubility in organic solvents: organic solvents like CHCl3, CH2Cl2 (and DMF)
From the text: Thus self-aggregation behavior of 3 has not been investigated. To increase the polar character and to improve the water-solubility of such a bis-biotinated derivative, the [5:1]-hexakisadduct 13 with five ethyl malonate addends instead of the five octadecadiynyl malonates was synthesized (FIG. 2). To overcome the general problem of separating the desired hexakisadducts from other adducts formed simultaneously upon the exhaustive cyclopropanation step the sequence of addition steps was reversed in this case. For this purpose the cherry-red C2v-symmetrical [5:0]-pentakisadduct 14^[14] was prepared and used as starting material. The subsequent cyclopropanation reaction with the Boc-protected spacer malonate 8 to complete the C2v-symmetrical octahedral addition pattern afforded the bright-yellow N-Boc-protected [5:1]-hexakisadduct 15 in 63% yield after FC and HPLC purification. After cleavage of the Boc-protecting groups with TFA/CH2Cl2 the bis-amino amphifullerene 16 was obtained in quantitative yield. […]
The characterization of the protected dipeptide hexakisadduct precursors 45 and 46 as well as the free dipeptide hexakisadducts 47 and 48 succeeded by IR-, UV-, ^1H and ^13C NMR and by FAB mass spectroscopy.
The synthesis of a series of mixed amphiphilic hexakisadducts of C60 with an octahedral addition pattern is now described. The new [5:1]-hexakisadduct 3 involving five non-polar long chain malonate addends and one polar addend with two biotin termini is insoluble in water. As a consequence it cannot be used for the investigation of superstructures in aqueous solution. However, it represents an attractive building block for a potential co-surfactant aided assembly to mixed micelles or liposomes. The spacer carrying the biotin termini was designed in a way that it can protrude through a layer of assembled lipid molecules such as DPPC. This in principle makes it available for targeting of micelles and liposomes via avidin mediated binding of label molecules. This is believed to be the first report of the synthesis of amphiphilic [3:3]-hexakisadducts of C60. The key for the very facile access to these aesthetically pleasing molecules is the easy synthesis of the e,e,e-trisadduct 18, which can be prepared in one step from the highly regioselective addition of cyclo-[3]-octylmalonate 17. The remaining three octahedral sites are available for the attachment of three ionic or neutral polar addends. As termini carboxy, amino and peptide moieties were used. This allows for the introduction of a tunable number of positive or negative charges within the polar groups by pH-variation. In a few cases preliminary investigations on the self-assembly using cryo-TEM and PGSE-NMR have been carried out. It has been shown that the solubility and self-assembly properties depend on the number of ionic charges and therefore on the pH value. These are very favourable opportunities for the controlled encapsulation and release of non-polar guest molecules making such amphiphilic fullerenes interesting candidates for drug delivery systems. Extensive investigations on the aggregation and inclusion properties of amphiphilic [3:3]-hexakisadducts of C60 are currently under way.

Row | solubility in methanol | solubility in organic solvents | Substance | self-assembly in water | solubility in water
1 | enhanced solubility | appreciable solubility | 1,2-{Bis-(14-[3-{2-(2-[Aminopropoxy]-ethoxy)-ethoxy}-propyl]carbamoyl-tetradecyloxycarbonyl)-methano}-18,36:22,23:27,45:31,32:55,60-pentakis-{ethyloxycarbonyl)-methano}-1,2:18,36:22,23:27,45:31,32:55,60-dihydro[60]fullerene [compound 16] |  | 
2 |  | Acceptable solubility | 1,2-{Bis-(14-[3-{2-(2-[N-Biotinyl-aminopropoxy]-ethoxy)-ethoxy}-propyl]-carbamoyltetradecyloxycarbonyl)-methano}-18,36:22,23:27,45:31,32:55,60-pentakis-{di(10,12-octadecadiynyloxycarbonyl)-methano}-1,2:18,36:22,23:27,45:31,32:55,60-dihydro[60]fullerene [compound 3] | inappropriate to form self-assemblies in water | only soluble in the presence of a co-solvent like methanol; also recorded: water-insoluble
3 | enhanced solubility | appreciable solubility | 1,2-{Bis-(14-[3-{2-(2-[N-Biotinyl-aminopropoxy]ethoxy)-ethoxy}-propyl]-carbamoyl-tetradecyloxycarbonyl)-methano}-18,36:22,23:27,45:31,32:55,60-pentakis-{ethyloxycarbonyl)-methano}1,2:18,36:22,23:27,45:31,32:55,60-dihydro-[60]fullerene [compound 13] | inappropriate to form self-assemblies in water | water-insoluble
